Laboratory results reported in ChEMBL document CHEMBL4118108, “UNC-51-like Kinase 1: From an Autophagic Initiator to Multifunctional Drug Target” (J Med Chem, 2018).

Legend:
[1] = tested on: MDA-MB-231; assay: Antiproliferative activity against human MDA-MB-231 cells by MTT assay; type: functional, cell-based
[2] = target: T1, Serine/threonine-protein kinase ULK2 (Homo sapiens, UniProt Q8IYT8); assay: Inhibition of GST-tagged ULK2 (unknown origin)
T1 sequence (Q8IYT8 whole entry): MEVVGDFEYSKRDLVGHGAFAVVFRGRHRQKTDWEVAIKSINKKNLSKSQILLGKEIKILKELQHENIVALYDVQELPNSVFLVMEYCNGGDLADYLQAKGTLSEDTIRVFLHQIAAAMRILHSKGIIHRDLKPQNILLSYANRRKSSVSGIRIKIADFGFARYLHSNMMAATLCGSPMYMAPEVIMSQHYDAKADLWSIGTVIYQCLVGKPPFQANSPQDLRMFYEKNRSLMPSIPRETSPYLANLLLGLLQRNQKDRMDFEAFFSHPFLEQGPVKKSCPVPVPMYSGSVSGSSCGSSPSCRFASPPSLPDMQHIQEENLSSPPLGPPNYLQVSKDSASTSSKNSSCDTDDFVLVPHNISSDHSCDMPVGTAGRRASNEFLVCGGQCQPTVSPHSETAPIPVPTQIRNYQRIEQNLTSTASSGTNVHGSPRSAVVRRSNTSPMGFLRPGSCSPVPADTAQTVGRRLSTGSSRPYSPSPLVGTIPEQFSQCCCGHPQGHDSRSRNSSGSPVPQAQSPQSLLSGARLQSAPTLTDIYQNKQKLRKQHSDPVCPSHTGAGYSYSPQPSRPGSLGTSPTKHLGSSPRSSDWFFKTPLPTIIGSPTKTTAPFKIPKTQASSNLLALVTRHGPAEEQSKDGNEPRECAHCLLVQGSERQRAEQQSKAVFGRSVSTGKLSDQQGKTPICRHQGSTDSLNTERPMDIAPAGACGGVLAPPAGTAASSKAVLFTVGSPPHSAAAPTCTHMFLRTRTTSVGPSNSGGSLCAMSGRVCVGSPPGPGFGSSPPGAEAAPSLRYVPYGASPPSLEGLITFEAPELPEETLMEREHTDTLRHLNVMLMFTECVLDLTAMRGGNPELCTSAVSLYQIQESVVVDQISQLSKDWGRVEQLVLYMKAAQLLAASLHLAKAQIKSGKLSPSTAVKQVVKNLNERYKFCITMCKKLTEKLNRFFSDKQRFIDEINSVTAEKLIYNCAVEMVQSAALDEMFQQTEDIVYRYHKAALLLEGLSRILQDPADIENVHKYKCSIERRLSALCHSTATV

| IC50 [1] [nM] | SMILES | IC50 [2] [nM] |
| --- | --- | --- |
| 1660 | CC(C)CN(CC(=O)N1CCN(CC(OCc2ccc3ccccc3c2)c2ccc(Cl)cc2Cl)CC1)CC(C)C (configuration not stated) | – |
| – | CNC(=O)c1ccccc1Oc1nc(Nc2cc(OC)c(OC)c(OC)c2)ncc1Br | 711 |
